For one data set, the target named is T1, IκB kinase (Homo sapiens, UniProt O14920+O15111).
T1 construct: endogenous in cells; host or cells: HeLa S3 (S100 extract; ammonium sulfate cut, Superose-6 fractions at 670 kDa)
The data set is described as follows: IκB kinase ELISA. The data set is classed as biochemical. For orientation: In an ELISA, binding on a coated surface is turned into a signal by an enzyme label.

Another data set relates to protein tyrosine kinase. The data set is described as follows: Protein tyrosine kinase assay (Upstate test kit). The format is biochemical. Particulars: for Specificity ratio: IC50 protein tyrosine kinase relative to IκB kinase, > denotes better than; for IC50: ATP concentration of 50 μM, substrate Poly (Glu, Tyr 4:1) 1 mg/ml. The protocol:
As examples of the specificities of the IκB kinase inhibitors which had been discovered, their IC50 values were determined in the case of the kinase enzyme protein tyrosine kinase.
Protein tyrosine kinase activity was determined using the appropriate test kit from Upstate Biotechnologie in accordance with the manufacturer's instructions and at an ATP concentration of 50 μM. As a difference from the manufacturer's method, Multi-Screen plates (Millipore; phosphocellulose MS-PH, cat. MAPHNOB10, or Durapore PVDF, cat. MADVNOB 50), were used, together with the appropriate exhaust system, instead of phospho-cellulose filters. Poly (Glu, Tyr 4:1) (Sigma cat. P0275) was used as the test kit substrate at a test concentration of 1 mg/ml. The plates were then measured in a Wallac MicroBeta scintillation counter. 100 μM of the test substance were used in each case.
The test substance was tested in a duplicate determination. The IC50 calculations were performed using the GraFit 3.0 software package.

Data set [1] is described as follows: Blood plasma level after oral administration, male C57/BL6 mice. The format is in vivo. The conditions noted are these: about 25 mg/kg orally as suspension in 0.5% HEC, sampling 0.25-8 hours. The protocol: Blood plasma level of N-[(S)-2-diphenylamino-1-(5-oxo-4,5-dihydro[1,3,4]-oxadiazol-2-yl)ethyl]-2-(2-methylaminopyrimidin-4-yl)-1H-indol-5-carboxamide.
Blood samples were taken after 0.25; 0.5; 1; 2; 4; 6 and 8 hours (sacrificial blood was withdrawn from in each case 2 animals at each of the time points mentioned). The blood samples were converted into heparin plasma. The plasma samples were stored at −20° C. until analyzed.
The plasma samples were thawed. The plasma proteins which interfered with the analysis were then precipitated with acetonitrile.
Processing: 50 μl of plasma+20 μl of internal standard (5 μg/ml)+50 μl of buffer (2 mMol ammonium formate solution, pH 2.6/acetonitrile, 40:60, v/v) were mixed for about 10 sec on a Whirlmixer. 150 μl of acetonitrile were then added and the whole was mixed once again for about 10 sec. The samples were then centrifuged (Hettich, EBA 12, about 12 000 revolutions per minute). The supernatants (in each case about 200 μl) were transferred to glass tubes. 70 μl of the supernatant were injected.
The lower detection limit of the method is 0.01 μg/mL.

A short description of data set [2]: Comparison experiment: blood plasma level after oral administration, male NMRI mice. The format is in vivo. The protocol: [drawing 27] was prepared as described in WO 01/30774 and is termed the comparison compound below. The comparison compound was administered to male NMRI mice. For this, in each case about 50 mg of the comparison compound per kg of body weight of the mice were administered orally as a suspension in 0.5% HEC (by way of a probang). Blood samples were taken after 0.25; 0.5; 1; 2; 4; 6 and 8 hours (sacrificial blood was withdrawn from in each case 2 animals at each of the time points mentioned). The blood samples were converted into heparin plasma. The plasma samples were stored at −20° C. until analyzed.
Analysis: The analysis was carried out using HPLC/UV.
Processing: 50 μl of plasma+20 μl of internal standard (5 μg/ml)+50 μl of buffer (1% formic acid/acetonitrile, 40:60, v/v) were mixed for about 10 sec on a Whirlmixer. 150 μl of acetonitrile were then added and the whole was mixed once again for about 10 sec. The samples were then centrifuged (Hettich, EBA 12, about 12 000 revolutions per min). The supernatants (in each case about 200 μl) were transferred to glass tubes. 100 μl of the supernatant were injected.

These results are taken from US7285560B2, “Indole derivatives or benzimidazole derivatives for modulating IκB kinase” (Sanofi-Aventis Deutschland GmbH, priority 2002, dated 2007).

A value given as a limit tells only on which side of the number the result lay.

T1 sequence (O14920 whole entry): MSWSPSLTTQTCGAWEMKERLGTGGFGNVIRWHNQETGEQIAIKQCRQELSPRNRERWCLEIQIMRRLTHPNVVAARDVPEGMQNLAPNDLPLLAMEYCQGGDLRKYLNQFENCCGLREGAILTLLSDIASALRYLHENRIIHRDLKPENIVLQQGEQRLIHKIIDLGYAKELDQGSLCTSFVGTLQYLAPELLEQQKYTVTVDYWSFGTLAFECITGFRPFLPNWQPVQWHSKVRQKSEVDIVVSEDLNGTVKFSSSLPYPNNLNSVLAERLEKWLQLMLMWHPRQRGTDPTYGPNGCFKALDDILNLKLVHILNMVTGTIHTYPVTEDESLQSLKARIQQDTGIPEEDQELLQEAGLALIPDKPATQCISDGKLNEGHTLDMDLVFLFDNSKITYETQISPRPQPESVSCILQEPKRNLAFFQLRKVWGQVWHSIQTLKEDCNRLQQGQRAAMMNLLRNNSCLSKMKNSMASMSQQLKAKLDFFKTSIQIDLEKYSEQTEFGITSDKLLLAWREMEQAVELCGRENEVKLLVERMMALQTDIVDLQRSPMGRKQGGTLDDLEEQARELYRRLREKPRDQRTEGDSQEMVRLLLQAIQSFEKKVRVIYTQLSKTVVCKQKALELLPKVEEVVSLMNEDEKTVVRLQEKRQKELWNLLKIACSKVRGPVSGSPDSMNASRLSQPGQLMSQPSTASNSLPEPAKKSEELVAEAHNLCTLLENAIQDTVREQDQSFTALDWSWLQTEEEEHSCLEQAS
T1 sequence (O15111 whole entry): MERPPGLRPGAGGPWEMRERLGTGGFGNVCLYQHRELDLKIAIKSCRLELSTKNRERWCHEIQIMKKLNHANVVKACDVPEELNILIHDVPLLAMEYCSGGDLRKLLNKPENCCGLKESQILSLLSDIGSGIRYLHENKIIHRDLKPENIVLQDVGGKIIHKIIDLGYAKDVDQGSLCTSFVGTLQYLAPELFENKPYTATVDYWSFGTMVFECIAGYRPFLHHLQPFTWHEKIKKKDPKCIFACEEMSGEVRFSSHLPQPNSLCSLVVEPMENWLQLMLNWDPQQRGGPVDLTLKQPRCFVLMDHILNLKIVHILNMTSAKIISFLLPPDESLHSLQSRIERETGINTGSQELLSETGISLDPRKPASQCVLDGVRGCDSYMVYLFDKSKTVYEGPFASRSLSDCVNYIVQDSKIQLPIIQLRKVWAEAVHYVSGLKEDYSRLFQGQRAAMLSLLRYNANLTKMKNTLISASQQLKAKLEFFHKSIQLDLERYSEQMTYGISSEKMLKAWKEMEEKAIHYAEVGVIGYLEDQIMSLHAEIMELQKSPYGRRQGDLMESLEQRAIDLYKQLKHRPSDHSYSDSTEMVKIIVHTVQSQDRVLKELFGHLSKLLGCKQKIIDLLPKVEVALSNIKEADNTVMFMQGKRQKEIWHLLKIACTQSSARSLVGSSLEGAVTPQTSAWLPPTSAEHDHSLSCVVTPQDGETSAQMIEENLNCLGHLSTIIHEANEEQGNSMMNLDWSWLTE
T1 sequence (Q9Y6K9 whole entry partner): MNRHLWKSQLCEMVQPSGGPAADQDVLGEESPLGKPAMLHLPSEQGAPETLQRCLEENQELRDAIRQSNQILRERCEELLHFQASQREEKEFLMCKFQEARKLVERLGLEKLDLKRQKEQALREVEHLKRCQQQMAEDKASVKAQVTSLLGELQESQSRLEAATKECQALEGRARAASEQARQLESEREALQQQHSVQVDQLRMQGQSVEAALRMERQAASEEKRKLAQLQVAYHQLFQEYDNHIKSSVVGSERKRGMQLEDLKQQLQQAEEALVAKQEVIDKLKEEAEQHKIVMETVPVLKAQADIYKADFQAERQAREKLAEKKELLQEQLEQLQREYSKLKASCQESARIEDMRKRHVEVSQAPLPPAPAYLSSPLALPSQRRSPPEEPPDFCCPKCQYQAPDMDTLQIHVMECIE

Take `CNc1nccc(-c2cc3cc(C(=O)NC(CN(c4ccccc4)c4ncccn4)C(=O)NCCO)ccc3[nH]2)n1` (stereo not drawn) [Example 49, N-[1-(2-Hydroxyethylcarbamoyl)-2-(phenylpyrimidin-2-ylamino)ethyl]-2-(2-methylaminopyrimidin-4-yl)-1H-indole-5-carboxamide]: it took 35 nM to reach half-maximal inhibition at IκB kinase (IC50).
For the molecule `CNc1nccc(-c2nc3cc(C(=O)NC(CN(c4ccccc4)c4ccccn4)C(N)=O)ccc3[nH]2)n1` (stereo not drawn) [Example 67, N-{1–Carbamoyl-2-[(phenyl)pyridin-2-ylamino]ethyl}-2-(2-methylaminopyrimidin-4-yl)-1H-benzimidazole-5-carboxamide], the IC50 (in general, the concentration needed to halve the response being measured) against IκB kinase is 2 nM. For the same molecule, in the data set with protein tyrosine kinase, the Specificity ratio is on record as above 5000.
The matching figures for `CNc1nccc(-c2cc3cc(C(=O)N[C@@H](CN(c4ccccc4)c4nccc(C(F)(F)F)n4)C(=O)O)ccc3[nH]2)n1` [Example 54, (S)-2-{[2-(2-Methylaminopyrimidin-4-yl)-1H-indole-5-carbonyl]amino}-3-[phenyl-(4-trifluoromethylpyrimidin-2-yl)amino]propionic Acid]: 3 nM and above 3330.
On the same counts, the results for `CNc1nccc(-c2cc3cc(C(=O)NC(CN(c4ccc(F)cc4)c4ccccn4)c4nnc[nH]4)ccc3[nH]2)n1` (stereo not drawn) [Example 36, N-[2-[(4-Fluorophenyl)pyridin-2-ylamino]-1-(4H-[1,2,4]triazol-3-yl)ethyl]-2-(2-methylaminopyrimidin-4-yl)-1H-indole-5-carboxamide] are 5 nM and above 2000.
In turn, `CNc1nccc(-c2cc3cc(C(=O)N[C@@H](CN(c4ccccc4)c4ccccn4)C(=O)NOC)ccc3[nH]2)n1` [Example 43, N-[1-Methoxycarbamoyl-2-(phenylpyridin-2-ylamino)ethyl]-S-2-(2-methylaminopyrimidin-4-yl)-1H-indole-5-carboxamide] registered an IC50 on IκB kinase of 0.8 nM. Also, the Specificity ratio in the data set with protein tyrosine kinase is above 12500.
`CNc1nccc(-c2cc3cc(C(=O)NC(CN(c4ccc(F)cc4)c4ncc(C)cn4)C(N)=O)ccc3[nH]2)n1` (stereo not drawn) [Example 61, N-{1–Carbamoyl-2-[(4-fluorophenyl)-(5-methylpyrimidin-2-yl)amino]ethyl}-2-(2-methylaminopyrimidin-4-yl)-1H-indole-5-carboxamide] displayed an IC50 on IκB kinase of 6 nM. The Specificity ratio in the data set on protein tyrosine kinase is listed as above 1650.
Consider `CNc1nccc(-c2cc3cc(C(=O)N[C@@H](CN(c4ccccc4)c4ccccc4)c4n[nH]c(=O)o4)ccc3[nH]2)n1` [Example 28, N-[(S)-2-Diphenylamino-1-(5-oxo-4,5-dihydro[1,3,4]oxadiazol-2-yl)ethyl]-2-(2-methylaminopyrimidin-4-yl)-1H-indole-5-carboxamide], for which the midpoint of inhibition against protein tyrosine kinase, the IC50, lay at 82500 nM. Further, the “plasma level, at most (maximum blood plasma level)” value in data set [1] is 4300 ng/mL. Moreover, in data set [1] (mouse, plasma, po, read-out: exposure, measured as AUC=area under the curve), the AUC (as a rule, the area under the concentration-time curve, a measure of exposure) was found to be 5400 ng·h/mL.
The molecule `CNc1nccc(-c2cc3cc(C(=O)NC(CN(c4ccccc4)c4ncccn4)C(N)=O)ccc3[nH]2)n1` (stereo not drawn) [Example 47, N-{1–Carbamoyl-2[(phenyl)pyrimidin-2-ylamino]ethyl}-2-(2-methylaminopyrimidin-4-yl)-1H-indole-5-carboxamide] registered an IC50 at IκB kinase of 6 nM. For the same molecule, the Specificity ratio with protein tyrosine kinase is listed as above 1665.
Regarding `CCN(C[C@H](NC(=O)c1ccc2[nH]c(-c3ccncc3)cc2c1)C(N)=O)c1ccccc1` [comparison compound], the midpoint of inhibition at protein tyrosine kinase, the IC50, lay at 46400 nM. For the same molecule, in the data set on protein tyrosine kinase (for the comparison compound the IκB kinase IC50 is taken from WO 01/30774), the “ratio of the IC50 values for protein tyrosine kinase relative to IκB kinase” value came out at 46.35. Also, the “maximum blood plasma level lower than with compound 28” value in data set [2] (comparison compound 50 mg/kg vs compound 28 25 mg/kg, oral, mice) was “about 60%”. Also, in data set [2] (male NMRI mice, about 50 mg/kg orally as suspension in 0.5% HEC, sampling 0.25-8 hours), the “plasma level, at most (maximum blood plasma level)” value was found to be 1500 ng/mL. In data set [2] (mouse, plasma, po, male NMRI mice, about 50 mg/kg orally as suspension in 0.5% HEC, sampling 0.25-8 hours, read-out: exposure, measured as the AUC=area under the curve), the AUC was 1700 ng·h/mL.
In the case of `CNc1nccc(-c2cc3cc(C(=O)N[C@@H](CN(c4ccccc4)c4ccccn4)c4n[nH]c(=O)o4)ccc3[nH]2)n1` [Example 33, N-[(S)-1-(5-Oxo-4,5-dihydro-1,3,4-oxadiazol-2-yl)-2-(phenylpyridin-2-ylamino)ethyl]-2-(2-methylaminopyrimidin-4-yl)-1H-indole-5-carboxamide], on IκB kinase, the IC50 is 12 nM. For the same molecule, in the data set on protein tyrosine kinase, the Specificity ratio is on record as above 833.
For `CNc1nccc(-c2cc3cc(C(=O)N[C@@H](CN(c4ccccc4)c4nccs4)C(N)=O)ccc3[nH]2)n1` [Example 42, N-[1–Carbamoyl-2-(phenylthiazol-2-ylamino)ethyl]-S-2-(2-methylaminopyrimidin-4-yl)-1H-indole-5-carboxamide], on IκB kinase, the IC50 came out at 9 nM. Besides, the Specificity ratio in the data set on protein tyrosine kinase is above 1110.
For the molecule `CNc1nccc(-c2cc3cc(C(=O)NC(CN(c4ccc(F)cc4)c4ccccn4)C(N)=O)ccc3[nH]2)n1` (stereo not drawn) [Example 30, N-{1–Carbamoyl-2-[(4-fluorophenyl)pyridin-2-ylamino]ethyl}-2-(2-methylaminopyrimidin-4-yl)-1H-indole-5-carboxaminde], the IC50 against IκB kinase was 50 nM. Moreover, the Specificity ratio with protein tyrosine kinase is recorded as above 200.
At IκB kinase, `NC(=O)C(CN(c1ccc(F)cc1)c1ccccn1)NC(=O)c1ccc2[nH]c(-c3ccnc(N)n3)cc2c1` (stereo not drawn) [Example 35, N-{1–Carbamoyl-2-[(4-fluorophenyl)pyridin-2-ylamino]ethyl}-2-(2-aminopyrimidin-4-yl)-1H-indole-5-carboxamide] yielded an IC50 of 10 nM. The Specificity ratio in the data set on protein tyrosine kinase is recorded as above 1000.
On to `CNc1nccc(-c2nc3cc(C(=O)NC(CN(c4ccccc4)c4ncccn4)C(N)=O)ccc3[nH]2)n1` (stereo not drawn) [Example 65, N-{1–Carbamoyl-2-[(phenyl)pyrimidin-2-ylamino]ethyl}2-(2-methylaminopyrimidin-4-yl)-1H-benzimidazole-5-carboxamide], for which, at IκB kinase, the IC50 amounted to 4 nM. Further, the Specificity ratio in the data set on protein tyrosine kinase was above 2500.
The molecule `CNc1nccc(-c2nc3cc(C(=O)N[C@@H](CN(c4ccccc4)c4ccccc4)C(N)=O)ccc3[nH]2)n1` [Example 63] had an IC50 against IκB kinase of 3 nM. In addition, the Specificity ratio in the data set on protein tyrosine kinase was above 1000.
